In PubChem BioAssay AID1259407 (Chemical Carcinogenesis Research Information System (CCRIS), 2018) one finds mutagenic call data, which are given here for three molecules.

The subject of the series is CCRIS mutagenicity, Ames/micronucleus/aberration tests. Kind of series: CCRIS mutagenicity studies.
[1] abbreviates: Test System: AMES SALMONELLA TYPHIMURIUM, Strain/Indicator: TA98, Metabolic Activation: NONE, Method: PREINCUBATION
Where [2] appears, read: Test System: AMES SALMONELLA TYPHIMURIUM, Strain/Indicator: TA100, Metabolic Activation: NONE, Method: PREINCUBATION

Calls of active or inactive are those of the source. How the calls were made is not given here.

Take `Nc1ccccc1C(=O)OC/C=C/c1ccccc1`: the mutagenic call is, setting by setting: (End Point: IN VITRO CHROMOSOMAL ABERRATIONS, Test System: CHINESE HAMSTER LUNG FIBROBLAST CELLS (CHL/IU), Metabolic Activation: NONE) “inactive; negative”; (End Point: IN VITRO CHROMOSOMAL ABERRATIONS, Test System: CHO CELLS, Metabolic Activation: NONE) “inactive; negative”; (End Point: IN VITRO CHROMOSOMAL ABERRATIONS, Test System: CHO CELLS, Metabolic Activation: RAT, LIVER, S-9, AROCLOR 1254) “inactive; negative”; (Test System: AMES SALMONELLA TYPHIMURIUM, Strain/Indicator: TA97, Metabolic Activation: HAMSTER, LIVER, S-9, AROCLOR 1254 (10%), Method: PREINCUBATION) “inactive; negative”; (Test System: AMES SALMONELLA TYPHIMURIUM, Strain/Indicator: TA97, Metabolic Activation: HAMSTER, LIVER, S-9, AROCLOR 1254 (30%), Method: PREINCUBATION) “inactive; negative”; (Test System: AMES SALMONELLA TYPHIMURIUM, Strain/Indicator: TA97, Metabolic Activation: NONE, Method: PREINCUBATION) “inactive; negative”. Further, the mutagenic call (Test System: AMES SALMONELLA TYPHIMURIUM, Strain/Indicator: TA97, Metabolic Activation: RAT, LIVER, S-9, AROCLOR 1254 (10%), Method: PREINCUBATION) was “inactive; negative”; the mutagenic call (Test System: AMES SALMONELLA TYPHIMURIUM, Strain/Indicator: TA97, Metabolic Activation: RAT, LIVER, S-9, AROCLOR 1254 (30%), Method: PREINCUBATION) was “inactive; negative”; the mutagenic call (Test System: AMES SALMONELLA TYPHIMURIUM, Strain/Indicator: TA98, Metabolic Activation: HAMSTER, LIVER, S-9, AROCLOR 1254 (10%), Method: PREINCUBATION) is “inactive; negative”; the mutagenic call (Test System: AMES SALMONELLA TYPHIMURIUM, Strain/Indicator: TA98, Metabolic Activation: HAMSTER, LIVER, S-9, AROCLOR 1254 (30%), Method: PREINCUBATION) is “inactive; negative”; the mutagenic call under setting [1] is “inactive; negative”; the mutagenic call (Test System: AMES SALMONELLA TYPHIMURIUM, Strain/Indicator: TA98, Metabolic Activation: RAT, LIVER, S-9, AROCLOR 1254 (10%), Method: PREINCUBATION) is “inactive; negative”. Besides, the mutagenic call is, setting by setting: (Test System: AMES SALMONELLA TYPHIMURIUM, Strain/Indicator: TA98, Metabolic Activation: RAT, LIVER, S-9, AROCLOR 1254 (30%), Method: PREINCUBATION) “inactive; negative”; (Test System: AMES SALMONELLA TYPHIMURIUM, Strain/Indicator: TA100, Metabolic Activation: HAMSTER, LIVER, S-9, AROCLOR 1254 (10%), Method: PREINCUBATION) “inactive; negative”; (Test System: AMES SALMONELLA TYPHIMURIUM, Strain/Indicator: TA100, Metabolic Activation: HAMSTER, LIVER, S-9, AROCLOR 1254 (30%), Method: PREINCUBATION) “inactive; negative”; under setting [2], “inactive; negative”; (Test System: AMES SALMONELLA TYPHIMURIUM, Strain/Indicator: TA100, Metabolic Activation: RAT, LIVER, S-9, AROCLOR 1254 (10%), Method: PREINCUBATION) “inactive; negative”; (Test System: AMES SALMONELLA TYPHIMURIUM, Strain/Indicator: TA100, Metabolic Activation: RAT, LIVER, S-9, AROCLOR 1254 (30%), Method: PREINCUBATION) “inactive; negative”. The mutagenic call by setting is: (Test System: AMES SALMONELLA TYPHIMURIUM, Strain/Indicator: TA1535, Metabolic Activation: HAMSTER, LIVER, S-9, AROCLOR 1254 (10%), Method: PREINCUBATION) “inactive; negative”; (Test System: AMES SALMONELLA TYPHIMURIUM, Strain/Indicator: TA1535, Metabolic Activation: HAMSTER, LIVER, S-9, AROCLOR 1254 (30%), Method: PREINCUBATION) “inactive; negative”; (Test System: AMES SALMONELLA TYPHIMURIUM, Strain/Indicator: TA1535, Metabolic Activation: NONE, Method: PREINCUBATION) “inactive; negative”; (Test System: AMES SALMONELLA TYPHIMURIUM, Strain/Indicator: TA1535, Metabolic Activation: RAT, LIVER, S-9, AROCLOR 1254 (10%), Method: PREINCUBATION) “inactive; negative”; (Test System: AMES SALMONELLA TYPHIMURIUM, Strain/Indicator: TA1535, Metabolic Activation: RAT, LIVER, S-9, AROCLOR 1254 (30%), Method: PREINCUBATION) “inactive; negative”; (Test System: E. COLI, Strain/Indicator: WP2 UVRA, Metabolic Activation: HAMSTER, LIVER, S-9, AROCLOR 1254, Method: STANDARD PLATE) “inactive; negative”. Also, the mutagenic call by setting is: (Test System: E. COLI, Strain/Indicator: WP2 UVRA, Metabolic Activation: NONE, Method: STANDARD PLATE) “inactive; negative”; (Test System: Mouse lymphoma, Strain/Indicator: L5178Y (tk+/tk-), Metabolic Activation: None, Method: Suspension/plate) “inactive; negative”; (Test System: Mouse lymphoma, Strain/Indicator: L5178Y (tk+/tk-), Metabolic Activation: Rat, Liver, S-9, Aroclor 1254, Method: Suspension/plate) “active; equivocal (previous evaluation positive)”; (Test System: UDS RAT HEPATOCYTES, Strain/Indicator: BROMODEOXYURIDINE INCORP, Metabolic Activation: NONE, Method: FLOW CYTOMETRIC ANALYSIS) “inactive; negative”; (Test System: UDS RAT HEPATOCYTES, Strain/Indicator: THY INCORP, Metabolic Activation: NONE, Method: AUTORADIOGRAPHY) “inactive; negative”.
Take `Cc1cccc(C)c1C`: the mutagenic call is “active; positive” (Test System: AMES SALMONELLA TYPHIMURIUM, Strain/Indicator: TA97A, Metabolic Activation: NONE, Method: STANDARD PLATE); “inactive; negative” (Test System: AMES SALMONELLA TYPHIMURIUM, Strain/Indicator: TA97A, Metabolic Activation: RAT, LIVER, S-9, AROCLOR 1254, Method: STANDARD PLATE); “active; positive” (Test System: AMES SALMONELLA TYPHIMURIUM, Strain/Indicator: TA98, Metabolic Activation: NONE, Method: STANDARD PLATE); “inactive; negative” (Test System: AMES SALMONELLA TYPHIMURIUM, Strain/Indicator: TA98, Metabolic Activation: RAT, LIVER, S-9, AROCLOR 1254, Method: STANDARD PLATE); “active; positive” (Test System: AMES SALMONELLA TYPHIMURIUM, Strain/Indicator: TA100, Metabolic Activation: NONE, Method: STANDARD PLATE); “inactive; negative” (Test System: AMES SALMONELLA TYPHIMURIUM, Strain/Indicator: TA100, Metabolic Activation: RAT, LIVER, S-9, AROCLOR 1254, Method: STANDARD PLATE). Also, the mutagenic call is “active; positive” (Test System: AMES SALMONELLA TYPHIMURIUM, Strain/Indicator: TA102, Metabolic Activation: NONE, Method: STANDARD PLATE) and “inactive; negative” (Test System: AMES SALMONELLA TYPHIMURIUM, Strain/Indicator: TA102, Metabolic Activation: RAT, LIVER, S-9, AROCLOR 1254, Method: STANDARD PLATE).
As to `CC(=O)Nc1ccc(Oc2ccc(N=O)cc2)cc1`, the mutagenic call (Test System: AMES SALMONELLA TYPHIMURIUM, Strain/Indicator: TA98(1,8-DNP6), Metabolic Activation: NONE, Method: PREINCUBATION) is “active; positive”; the mutagenic call (Test System: AMES SALMONELLA TYPHIMURIUM, Strain/Indicator: TA98(1,8-DNP6), Metabolic Activation: RAT, LIVER, S-9, AROCLOR 1254, Method: PREINCUBATION) was “active; positive”; the mutagenic call (Test System: AMES SALMONELLA TYPHIMURIUM, Strain/Indicator: TA98(NR), Metabolic Activation: NONE, Method: PREINCUBATION) is “active; positive”; the mutagenic call (Test System: AMES SALMONELLA TYPHIMURIUM, Strain/Indicator: TA98(NR), Metabolic Activation: RAT, LIVER, S-9, AROCLOR 1254, Method: PREINCUBATION) is “active; positive”; the mutagenic call under setting [1] was “active; positive”; the mutagenic call (Test System: AMES SALMONELLA TYPHIMURIUM, Strain/Indicator: TA98, Metabolic Activation: RAT, LIVER, S-9, AROCLOR 1254, Method: PREINCUBATION) was “active; positive”. For the same molecule, the mutagenic call (Test System: AMES SALMONELLA TYPHIMURIUM, Strain/Indicator: TA100(NR), Metabolic Activation: NONE, Method: PREINCUBATION) is “active; positive” and the mutagenic call under setting [2] was “active; positive”.
